The results in this text go back to US10654834B2 (Venenum Biodesign, LLC, priority 2016, dated 2020).

The target of one test is T1, mouse TGR5 receptor (Mus musculus, UniProt Q80SS6).
T1 construct: host or cells: HEK293-EBNA (293 c18, ATCC CRL10852)
T1 sequence (Q80SS6 1-329): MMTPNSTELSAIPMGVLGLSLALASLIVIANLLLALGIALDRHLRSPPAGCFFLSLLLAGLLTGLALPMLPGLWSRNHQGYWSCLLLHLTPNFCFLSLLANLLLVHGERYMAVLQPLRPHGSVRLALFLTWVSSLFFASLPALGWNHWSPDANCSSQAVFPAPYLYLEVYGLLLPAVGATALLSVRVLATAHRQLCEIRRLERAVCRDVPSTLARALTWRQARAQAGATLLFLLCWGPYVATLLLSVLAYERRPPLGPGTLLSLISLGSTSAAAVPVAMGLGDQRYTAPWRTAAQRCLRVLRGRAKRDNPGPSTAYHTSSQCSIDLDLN
As to the kind of experiment: Mouse TGR5 HTRF cAMP production assay (HEK293-EBNA cells, Cisbio cAMP HiRange kit). It is filed as cell-based. As to conditions: HEK293-EBNA cells overexpressing mouse TGR5, HTRF cAMP assay. The gist of the method:
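HEK293-EBNA cells stably expressing mouse TGR5 (episomal vector) were suspended in serum-free DMEM with 500 μM IBMX and exposed to 12-point half-log compound dilutions for 1 h at room temperature. cAMP was detected by HTRF (d2-cAMP/anti-cAMP cryptate, 1 h, room temperature), giving EC50 from duplicates.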
On the technique in general: TR-FRET usually uses a lanthanide donor and a delayed reading to cut background.

The next test concerns Mouse STC-1 cells. As to the kind of experiment: STC-1 GLP-1 assay (GLP-1 secretion). The class given is cell-based. The note with it: Mouse STC-1 cells, GLP-1 secretion, 2 h; read-out: Mouse STC-1 HTRF GLP-1 Activity (EC50). The gist of the method:
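Mouse STC-1 cells were plated two days ahead in DMEM with 10% charcoal-dextran stripped FBS, then exposed to compound in HBSS with protease inhibitors, DPP-IV inhibitor and 0.1% fatty acid free BSA for 2 h at 37° C. Active GLP-1 in supernatant was quantified by HTRF; EC50 derived from 12-point half-log curves.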

Bounds are passed on as bounds.

A word on the EC50: it is the midpoint of the concentration-response curve. For `N#Cc1ccc(CCNC(=O)[C@@H]2CCCN2c2cc(N3CCC(CCNS(=O)(=O)CCNC(=O)[C@@H](N)CS(=O)(=O)O)CC3)nc(C(F)(F)F)n2)cc1` [Compound 125, (R)-2-amino-3-((2-(N-(2-(1-(6-((S)-2-((4-cyanophenethyl)carbamoyl)-pyrrolidin-1-yl)-2-(trifluoromethyl)-pyrimidin-4-yl)piperidin-4-yl)ethyl)sulfamoyl)ethyl)amino)-3-oxopropane-1-sulfonic acid], the figures for the EC50 on mouse TGR5 receptor and in the test with Mouse STC-1 cells were below 0.1 µM and 0.1 to 0.999 µM, respectively.
On the same counts, the results for `O=C(CCCC1CCN(c2cc(N3CCC[C@H]3C(=O)NCCc3ccc(C(F)(F)F)cc3)nc(C(F)(F)F)n2)CC1)NCCCS(=O)(=O)O` [Compound 60, (S)-3-(4-(1-(2-(trifluoromethyl)-6-(2-((4-(trifluoromethyl)phenethyl)carbamoyl)pyrrolidin-1-yl)pyrimidin-4-yl)piperidin-4-yl)butanamido)propane-1-sulfonic acid] are below 0.1 µM and below 0.1 µM.
The like results for `N#Cc1ccc(CCNC(=O)[C@@H]2CCCN2c2cc(N3CCC(CCNC(=N)N)CC3)nc(C(F)(F)F)n2)cc1` [Compound 126, (S)—N-(4-cyanophenethyl)-1-(6-(4-(2-guanidinoethyl)piperidin-1-yl)-2-(trifluoromethyl)pyrimidin-4-yl)pyrrolidine-2-carboxamide] were, in that order, below 0.1 µM and 0.1 to 0.999 µM.
With `O=C(CCC1CCN(c2cc(N3CC[C@H]3C(=O)NCCc3ccc(C(F)(F)F)cc3)nc(C(F)(F)F)n2)CC1)NCS(=O)(=O)O` [Compound 253, (S)-(3-(1-(2-(trifluoromethyl)-6-(2-((4-(trifluoromethyl)phenethyl)-carbamoyl)azetidin-1-yl)pyrimidin-4-yl)piperidin-4-yl)propanamido)-methanesulfonic acid], the EC50 at mouse TGR5 receptor and with Mouse STC-1 cells was below 0.1 µM throughout.
Consider `N=C(N)N[C@@H](CCC(=O)NCCCC1CCN(c2cc(N3CCC[C@H]3C(=O)NCCc3ccc(C(F)(F)F)cc3)nc(C(F)(F)F)n2)CC1)C(=O)O` [Compound 133, (S)-2-guanidino-5-oxo-5-((3-(1-(2-(trifluoromethyl)-6-((S)-2-((4-(trifluoromethyl)phenethyl)carbamoyl)pyrrolidin-1-yl)pyrimidin-4-yl)piperidin-4-yl)propyl)amino)pentanoic acid], for which the EC50 on mouse TGR5 receptor and with Mouse STC-1 cells was below 0.1 µM each time.
Consider `N#Cc1ccc(CCNC(=O)[C@@H]2CCCN2c2cc(N3CCC(CCNC(=O)NCCS(=O)(=O)NCC(=O)O)CC3)nc(C(F)(F)F)n2)cc1` [Compound 107], for which the EC50 on mouse TGR5 receptor is below 0.1 µM; with Mouse STC-1 cells it was 0.1 to 0.999 µM.
The like results for `N#Cc1ccc(CCNC(=O)[C@@H]2CCCN2c2cc(N3CCC(CCNc4c(NCP(=O)(O)O)c(=O)c4=O)CC3)nc(C(F)(F)F)n2)cc1` [Compound 369, (S)-(((2-((2-(1-(6-(2-((4-cyanophenethyl)carbamoyl)pyrrolidin-1-yl)-2-(trifluoromethyl)pyrimidin-4-yl)piperidin-4-yl)ethyl)amino)-3,4-dioxocyclobut-1-en-1-yl)amino)methyl)phosphonic acid] were, in that order, below 0.1 µM and 0.1 to 0.999 µM.
The like results for `N#Cc1ccc(CCNC(=O)[C@@H]2CCCN2c2cc(N3CCC(CCCC(=O)NCCCC[C@H](NC(=N)N)C(=O)O)CC3)nc(C(F)(F)F)n2)cc1` [Compound 129, (S)-6-(4-(1-(6-((S)-2-((4-cyanophenethyl)carbamoyl)pyrrolidin-1-yl)-2-(trifluoromethyl)pyrimidin-4-yl)piperidin-4-yl)butanamido)-2-guanidinohexanoic acid] were, in that order, below 0.1 µM and 0.1 to 0.999 µM.
For the compound `N#Cc1ccc(CCNC(=O)[C@@H]2CCN2c2cc(N3CCC(CCNC(=O)NCCS(=O)(=O)O)CC3)nc(C(F)(F)F)n2)cc1` [Compound 271, (S)-2-(3-(2-(1-(6-(2-((4-cyanophenethyl)carbamoyl)azetidin-1-yl)-2-(trifluoromethyl)pyrimidin-4-yl)piperidin-4-yl)ethyl)ureido)-ethanesulfonic acid], the EC50 at mouse TGR5 receptor and with Mouse STC-1 cells was below 0.1 µM in each case.
With `N#Cc1ccc(CCNC(=O)[C@@H]2CCCN2c2cc(-c3ccc(CCC(=O)NCS(=O)(=O)O)cc3)cc(C(F)(F)F)n2)cc1` [Compound 206, (S)-(3-(4-(2-(2-((4-cyanophenethyl)carbamoyl)pyrrolidin-1-yl)-6-(trifluoromethyl)pyridin-4-yl)phenyl)propanamido)methanesulfonic acid], the EC50 is below 0.1 µM on mouse TGR5 receptor and 0.1 to 0.999 µM in the test on Mouse STC-1 cells.
On the same counts, the results for `N#Cc1ccc(CCNC(=O)[C@@H]2CCCN2c2cc(N3CCC(CCCC(=O)O)CC3)cc(C(F)(F)F)n2)cc1` [Compound 197, (S)-4-(1-(2-(2-((4-cyanophenethyl)carbamoyl)pyrrolidin-1-yl)-6-(trifluoromethyl)pyridin-4-yl)piperidin-4-yl)butanoic acid] are below 0.1 µM and below 0.1 µM.
The like results for `O=C(O)CCCC1CCN(c2cc(N3CCC[C@@H](C(=O)NCCc4ccc(C(F)(F)F)cc4)C3)nc(C(F)(F)F)n2)CC1` [Compound 330, (R)-4-(1-(2-(trifluoromethyl)-6-(3-((4-(trifluoromethyl)phenethyl)carbamoyl)piperidin-1-yl)pyrimidin-4-yl)piperidin-4-yl)butanoic acid] were, in that order, below 0.1 µM and 0.1 to 0.999 µM.
The like results for `CN(C)CCC1CCN(c2cc(N3CCC[C@H]3C(=O)NCCc3ccc(C(F)(F)F)cc3)nc(C(F)(F)F)n2)CC1` [Compound 5] were, in that order, below 0.1 µM and 0.1 to 0.999 µM.
`N#Cc1ccc(CCNC(=O)[C@@H]2CCN2c2cc(N3CCC(CCCC(=O)NC[C@@H](O)[C@H](O)[C@@H](O)[C@@H](O)CO)CC3)nc(C(F)(F)F)n2)cc1` [Compound 260, (S)—N-(4-cyanophenethyl)-1-(6-(4-(4-oxo-4-(((2R,3S,4S,5S)-2,3,4,5,6-pentahydroxyhexyl)amino)butyl)piperidin-1-yl)-2-(trifluoromethyl)pyrimidin-4-yl)azetidine-2-carboxamide]: the EC50 on mouse TGR5 receptor is below 0.1 µM; in the test on Mouse STC-1 cells, 0.1 to 0.999 µM.
On the same counts, the results for `N#CCCN1CCN(c2cc(N3CCC[C@H]3C(=O)NCCc3ccc(C#N)cc3)nc(C(F)(F)F)n2)CC1` [Compound 32] are below 0.1 µM and 0.1 to 0.999 µM.
For `N#Cc1ccc(CCNC(=O)[C@@H]2CCCN2c2cc(N3CCC(CCCC(=O)NCCS(=O)(=O)O)CC3)cc(C(F)(F)F)n2)cc1` [Compound 199, (S)-2-(4-(1-(2-(2-((4-cyanophenethyl)carbamoyl)pyrrolidin-1-yl)-6-(trifluoromethyl)pyridin-4-yl)piperidin-4-yl)butanamido)ethanesulfonic acid], the EC50 on mouse TGR5 receptor and in the test with Mouse STC-1 cells was below 0.1 µM throughout.
As to `CS(=O)(=O)NCCOCCNC(=O)NCCC1CCN(c2cc(N3CC[C@H]3C(=O)NCCc3ccc(C#N)cc3)nc(C(F)(F)F)n2)CC1` [Compound 292, (S)-N-(4-cyanophenethyl)-1-(6-(4-(2-(3-(2-(2-(methylsulfonylamino)-ethoxy)ethyl)ureido)ethyl)piperidin-1-yl)-2-(trifluoromethyl)pyrimidin-4-yl)azetidine-2-carboxamide], the EC50 on mouse TGR5 receptor was below 0.1 µM; in the test on Mouse STC-1 cells, 0.1 to 0.999 µM.
On the same counts, the results for `N#Cc1ccc(CCNC(=O)[C@@H]2CCCN2c2cc(N3CCC(CCCC(=O)O)CC3)nc(C(F)(F)F)n2)cc1` [Compound 29] are below 0.1 µM and 0.1 to 0.999 µM.
The like results for `N#Cc1ccc(CCNC(=O)[C@@H]2CCCN2c2cc(N3CCC(CCCC(=O)NCCS(=O)(=O)NCC(=O)O)CC3)nc(C(F)(F)F)n2)cc1` [Compound 115, (S)-2-(2-(4-(1-(6-(2-((4-cyanophenethyl)carbamoyl)pyrrolidin-1-yl)-2-(trifluoromethyl)pyrimidin-4-yl)piperidin-4-yl)butanamido)-ethylsulfonamido)acetic acid] were, in that order, below 0.1 µM and below 0.1 µM.
On the same counts, the results for `N#Cc1ccc(CCNC(=O)[C@@H]2CCCN2c2cc(N3CCC(CCC(=O)O)CC3)nc(C(F)(F)F)n2)cc1` [Compound 28] are below 0.1 µM and 0.1 to 0.999 µM.
In the case of `N#Cc1ccc(CCNC(=O)[C@@H]2CCCN2c2cc(N3CCC(CCNc4c(NCCS(=O)(=O)O)c(=O)c4=O)CC3)nc(C(F)(F)F)n2)cc1` [Compound 367, (S)-2-((2-((2-(1-(6-(2-((4-cyanophenethyl)carbamoyl)pyrrolidin-1-yl)-2-(trifluoromethyl)pyrimidin-4-yl)piperidin-4-yl)ethyl)amino)-3,4-dioxocyclobut-1-en-1-yl)amino)ethanesulfonic acid], the EC50 is below 0.1 µM at mouse TGR5 receptor and 0.1 to 0.999 µM in the test with Mouse STC-1 cells.
On the same counts, the results for `N#Cc1ccc(CCNC(=O)[C@@H]2CCCN2c2cc(N3CCC(CCCC(=O)NCCNc4ncc(C(=O)NCCS(=O)(=O)O)cn4)CC3)nc(C(F)(F)F)n2)cc1` [Compound 112, (S)-2-(2-((2-(4-(1-(6-(2-((4-cyanophenethyl)carbamoyl)pyrrolidin-1-yl)-2-(trifluoromethyl)pyrimidin-4-yl)piperidin-4-yl)butanamido)ethyl)amino)-pyrimidine-5-carboxamido)ethanesulfonic acid] are below 0.1 µM and below 0.1 µM.
